Among the data in patent US20250136592A1, “C-LINKED INHIBITORS OF ENL/AF9 YEATS” (Bridge Medicines, priority 2021, published 2025) are EC50 values, retold here.

The test concerns MV4:11 (MLL-AF4 MLL) cells. Put plainly: Cell viability assay (CellTiter-Glo), 12 days. In kind it is cell-based. Particulars: Homo sapiens, 288 h, MV4;11 cells, 12 day, read-out: CTG_MV4, 11 12 DAY_EC50. Here is the method: The assays were conducted over 12 days and the cells being split on days 4 and 8. […] Blank wells received cell culture medium. Plates were incubated for 4 days at 37° C. with 5% CO2. On days 4 and day 8 the cells were split and incubated for a further 4 days whilst an aliquot of cells were taken for the CTG readout. For the cell splitting, 270 nL of compounds or DMSO was added to a new 96 well cell culture plate to which 90 μL of medium plus 10 μL of cells from the original assay plate (after mixing) or 100 μL of medium (Blank wells) was added. This was repeated on day 8.
Cell viability was assessed using the CellTiter-Glo® homogeneous luminescent assay kit (Promega, G9243), according to the manufacturer's instructions. This quantifies ATP, which indicates the presence of metabolically active cells. […] The resulting data were analyzed as follows:
where vehicle are cells treated with 0.3% DMSO, Blank is culture medium. IC50 determinations were calculated by fitting the curve using XLfit (v5.3.1.3): Y=Bottom+(Top−Bottom)/(1+10^((LogIC50−X)*HillSlope)).
For orientation: In ATP-based viability assays light output follows the ATP content of the culture.
Consider `CN1CCC[C@@H]1c1nc2cc(NC(=O)c3ccc4c(cnn4-c4ccncc4)c3)ccc2[nH]1` [Example 3, (R)—N-(2-(1-methylpyrrolidin-2-yl)-1H-benzo[d]imidazol-5-yl)-1-(pyridin-4-yl)-1H-indazole-5-carboxamide], for which the EC50 is 571 nM. Take `CN1C(=O)Cc2cc(C(=O)Nc3cc4[nH]c([C@H]5CCCCN5C)cc4cn3)ccc21` [Example 95]: the EC50 came to 451 nM. For `Cc1cc2ccc(C(=O)Nc3cc4[nH]c([C@H]5CCCN5C)cc4cn3)cn2n1` [Example 1, 2-methyl-N-{2-[(2R)-1-methylpyrrolidin-2-yl]-1H-pyrrolo[3,2-c]pyridin-6-yl}pyrazolo[1,5-a]pyridine-6-carboxamide], the EC50 stood at 3250 nM. Consider `Cc1nc(C(F)(F)F)c2ccc(C(=O)Nc3cc4[nH]c([C@H]5CCCN5C)cc4cn3)cn12` [Example 53], for which the EC50 came to 5290 nM. With `CN1CCCC[C@@H]1c1cc2cnc(NC(=O)c3ccc4cc(=O)n(C)n4c3)cc2[nH]1` [Example 97] the figure was 146 nM. Take `CN1CCC[C@@H]1c1nc2cc(NC(=O)c3ccc4c(-c5ccncc5)noc4c3)ccc2[nH]1` [Example 13]: the EC50 stood at 359 nM. Regarding `CN1CCC[C@@H]1c1nc2ccc(NC(=O)c3ccc4c(C5CC5)nn(C)c4c3)cc2[nH]1` [Example 10], the EC50 is 280 nM. As for `CN1CCCC[C@@H]1c1cc2cnc(NC(=O)c3ccc4c(cnn4C)c3)cc2[nH]1` [Example 98], the EC50 was determined as 440 nM. With `CN1CCCC[C@@H]1c1cc2cnc(NC(=O)c3ccc4c(=O)n(C)ccc4c3)cc2[nH]1` [Example 100, (R)-2-methyl-N-(2-(1-methylpiperidin-2-yl)-1H-pyrrolo[3,2-c]pyridin-6-yl)-1-oxo-1,2-dihydroisoquinoline-6-carboxamide], the EC50 was 202 nM.

For `CN1CCC[C@@H]1c1nc2ccc(NC(=O)c3cc4cccnc4cc3F)cc2[nH]1` [Example 16], the EC50 came to 106 nM. Take `Cc1ccc2cc(C(=O)Nc3cnc4cc([C@H]5CCCN5C)[nH]c4c3)c(F)cc2n1` [Example 73]: the EC50 came out at 1420 nM. In the case of `Cc1nc(C)n2cc(C(=O)Nc3cc4[nH]c([C@H]5CCCN5C)cc4cn3)ccc12` [Example 71], the EC50 came out at 220 nM. Under `CN1CCCC[C@@H]1c1cc2cnc(NC(=O)c3ccc4nnn(C)c4c3)cc2[nH]1` [Example 91, (R)-1-methyl-N-(2-(1-methylpiperidin-2-yl)-1H-pyrrolo[3,2-c]pyridin-6-yl)-1H-benzo[d][1,2,3]triazole-6-carboxamide] stands 215 nM; under `CN1CCCC1c1nc2cnc(NC(=O)c3ccc4c(cnn4C)c3)cc2[nH]1` (stereo not drawn) [Example 2, 1-methyl-N-(2-(1-methylpyrrolidin-2-yl)-1H-imidazo[4,5-c]pyridin-6-yl)-1H-indazole-5-carboxamide], 1320 nM; under `CNc1nccc2cc(C(=O)Nc3cc4[nH]c([C@H]5CCCN5C)cc4cn3)ccc12` [Example 79, (R)-1-(methylamino)-N-(2-(1-methylpyrrolidin-2-yl)-1H-pyrrolo[3,2-c]pyridin-6-yl) isoquinoline-6-carboxamide], 446 nM. `CN1CCC[C@@H]1c1cc2cnc(NC(=O)c3ccc4c(c3)nnn4-c3ccncc3)cc2[nH]1` [Example 85]: the EC50 was 488 nM.

With `CN1CCC[C@@H]1c1nc2ccc(NC(=O)c3ccc4onc(C5CC5)c4c3)cc2[nH]1` [Example 17], the EC50 was 3250 nM. On to `Cc1nccc2cc(C(=O)Nc3cc4[nH]c([C@H]5CCCCN5C)cc4cn3)ccc12` [Example 80, (R)-1-methyl-N-(2-(1-methylpiperidin-2-yl)-1H-pyrrolo[3,2-c]pyridin-6-yl) isoquinoline-6-carboxamide], for which the EC50 was 187 nM.
